This is an account of results in patent US20070173787A1, “Thin-film nitinol based drug eluting stent” (priority 2005, published 2007).

Series [1] has as its system human coronary artery smooth muscle cells. In words: Anti-proliferative activity in synchronized cultured human coronary artery smooth muscle cells stimulated with two percent fetal bovine serum. In kind it is cell-based. From the text: The multiple curves represent various concentrations of topotecan ranging from zero to three hundred nanomolar concentrations.
The multiple curves represent various concentrations of etoposide ranging from zero to eight hundred nanomolar concentrations.
The multiple curves represent various concentrations of Panzem® ranging from zero to 100 micromolar concentrations.

The test system of series [2] is human coronary artery smooth muscle cell. To be noted: concentrations up to 30,000.00 nanomolar, FIG. 69. From the text:
In vitro cytotoxicity tests or assays may be utilized to determine if drugs, agents and/or compounds are potentially toxic and the level of toxicity. Essentially, in vitro cytotoxicity assays determine acute necrotic effects by a drug causing direct cellular damage. The idea behind these assays is that toxic chemicals affect basic functions of cells which are common to all cells. […] There are a number of different assays that may be utilized. In the present invention, the cytotoxicity assay utilized is based upon the measurement of cellular metabolic activity. A reduction in metabolic activity is an indication of cellular damage. Tests that can measure metabolic function measure cellular ATP levels or mitochondrial activity via MTS metabolism. FIG. 69 is a graphical representation of the results of an MTS assay of Panzem®.

The test system is the same in series [3]. In words: In vitro cell culture study of human coronary artery smooth muscle cell proliferation (trichostatin A). The class given is cell-based. The text has this: FIG. 51 is a graph of the inhibition of coronary artery smooth muscle cells by trichostatin A in a cell culture study.
Series [4] relates to tumor cell lines. The note with it: cited from earlier work.
Series [5] has as its system platelet deposition and thrombus formation on the stent surface. Briefly: In vitro bovine blood loop model (In 111 labeled platelets). The note with it: FIG. 83. From the text: The anti-thrombotic efficacy of the above-described three configurations is illustrated in FIG. 83. FIG. 83 illustrates the anti-thrombotic properties of the sirolimus/cilostazol combination coatings described above in an in vitro bovine blood loop model. In the in vitro bovine blood loop model, fresh bovine blood is heparinized to adjust for acute clotting time (ACT) of about two hundred (200) seconds. The platelet content in the blood is labeled through the use of Indium 111. In the study, a stent is deployed in a silicone tube, which is part of a closed loop system for blood circulation. The heparinzed blood is circulated through the closed loop system by means of a circulating pump. Blood clots and thrombus builds up on a stent surface over time and reduces the flow rate of blood through the stented loop. […] The control drug eluting stent is the Cypher® sirolimus eluting coronary stent available from Cordis Corporation. Bar 8304 is a stent coated with heparin and is available from Cordis Corporation under the […]® on the Bx Velocity® coronary stent trademark. Bar 8306 is a stent configured as set forth with respect to the architecture illustrated in FIG. 76. Bar 8308 is a stent configured as set forth with respect to the architecture illustrated in FIG. 80. Bar 8310 is a stent configured as set forth with respect to the architecture illustrated in FIG. 82.

Series [6] in a line: In vivo release kinetics from stent coatings in porcine pharmacokinetics studies. To be noted: after eight (8) days of implantation; single layer sirolimus/cilostazol EVA/BMA coating with 100 μg BMA overcoat (FIG. 86), FIG. 84. The text has this: The topcoat is two hundred micro grams.
The basecoat is applied to Bx Velocity® stents and implanted into Yorkshire pigs.
Another critical parameter for the performance of the thrombus resistance of a device coated with cilostazol is the duration of the drug release from the coating. This is of particular significance in the two weeks after device implantation. […] The purpose of the porcine PK study is to assess the local pharmacokinetics of a drug eluting stent at a given implantation time. Normally three stents are implanted in three different coronary arteries in a pig for a given time point and then retrieved for total drug recovery analysis. The stents are retrieved at predetermined time points; namely, 1, 3 and 8 days. The stents are extracted and the total amount of drug remaining on the stents is determined by analysis utilizing HPLC (high performance liquid chromatography) for total drug amount. The difference between the original amount of drug on the stent and the amount of drug retrieved at a given time represents the amount of drug released in that period. The continuous release of drug into surrounding arterial tissue is what prevents the neointimal growth and restenosis in the coronary artery. A normal plot represents the percentage of total drug released (%, y-axis) vs. time of implantation (day, x-axis). […] In this exemplary configuration, the stent 8600 is coated with two layers. The first layer 8602 comprises a combination of sirolimus, cilostazol and a copolymer matrix of EVA/BMA. The second layer or diffusion overcoat 8604 comprises only BMA. More specifically, in this embodiment, the first layer 8602 comprises a combination of sirolimus and cilastazol that is forty-five (45) percent by weight of the total weight of the first layer 8602 and an EVA/BMA copolymer matrix that is fifty-five (55) percent by weight of the total weight of the first layer 8602. The diffusion overcoat comprises one hundred (100 μg) micrograms of BMA.
Pigs are an established animal species for intravascular stent studies and accepted for such studies by the appropriate regulatory agencies. This in vivo study utilized male pigs of the species Sus Scrofa and strain Yoorkshire pigs. S.M.A.R.T.™ stents, available from Cordis Corporation, were placed into the iliac and femoral arteries, PALMAZ® GENESIS™ stents, available from Cordis Corporation, were placed in the renal arteries and CYPHER™ stents, available from Cordis Corporation, were placed in the coronary arteries.

As for `COc1cc2c(cc1O)CC[C@@H]1[C@@H]2CC[C@]2(C)[C@@H](O)CC[C@@H]12` [Panzem®, 2-methoxyestradiol], in series [1] (FIG. 66), the anti-proliferative activity entry is on record as “extremely effective inhibitor of human coronary artery smooth muscle cell proliferation in vitro”. Besides, the “effect of addition on the anti-proliferative rapamycin dose response curve” value in series [1] (topotecan to 300 nanomolar (FIG. 64), etoposide to eight hundred nanomolar (FIG. 65), Panzem to 100 micromolar (FIG. 68)) is on record as “increases the percent of inhibition of rapamycin alone”. Besides, in series [2], the “cytotoxicity, MTS assay (cell survival)” value is listed as “do not reduce human coronary artery smooth muscle cell survival”.
By IC50 is commonly meant the midpoint of a concentration-inhibition curve. Consider `CC(/C=C/C(=O)NO)=C\[C@@H](C)C(=O)c1ccc(N(C)C)cc1` [trichostatin A], for which the IC50 in series [3] (human coronary artery smooth muscle cell proliferation, read-out: anti-proliferative IC50) is around 6 nM. The “inhibition of human coronary artery smooth muscle cell proliferation” value in series [3] (in vitro cell culture) is “completely inhibit”. Besides, the “anti-proliferative IC50” value in series [4] was “low nM range”.
On to `O=C1CCc2cc(OCCCCc3nnnn3C3CCCCC3)ccc2N1` [cilostazol, 6[4-(1-cyclohexyl-1H-tetrazol-5-yl)-butoxy]-3,4-dihydro-2-(1H)-quinolinone], for which, in series [5], the thrombus formation entry is given as “significantly reduces thrombus formation”. Further, in series [6], the “drug remaining in the drug coating” value is around 80%.
